Measured values: patent US12691101B2, “Compound and method for preventing or treating of respiratory diseases comprising the same as an active ingredient” (YONSEI UNIVERSITY, UNIVERSITY - INDUSTRY FOUNDATION (UIF), priority 2019, dated 2026)

Experiments:
human CFTR = biological target: T1, human CFTR (Homo sapiens, UniProt P13569); assay: CFTR chloride channel activity in FRT cells; format: cell-based
T1 construct: expressed in transfected cells; host or cells: FRT (Fischer rat thyroid) cells; for F10 also expressing mutant YFP
T1 sequence (P13569 whole entry): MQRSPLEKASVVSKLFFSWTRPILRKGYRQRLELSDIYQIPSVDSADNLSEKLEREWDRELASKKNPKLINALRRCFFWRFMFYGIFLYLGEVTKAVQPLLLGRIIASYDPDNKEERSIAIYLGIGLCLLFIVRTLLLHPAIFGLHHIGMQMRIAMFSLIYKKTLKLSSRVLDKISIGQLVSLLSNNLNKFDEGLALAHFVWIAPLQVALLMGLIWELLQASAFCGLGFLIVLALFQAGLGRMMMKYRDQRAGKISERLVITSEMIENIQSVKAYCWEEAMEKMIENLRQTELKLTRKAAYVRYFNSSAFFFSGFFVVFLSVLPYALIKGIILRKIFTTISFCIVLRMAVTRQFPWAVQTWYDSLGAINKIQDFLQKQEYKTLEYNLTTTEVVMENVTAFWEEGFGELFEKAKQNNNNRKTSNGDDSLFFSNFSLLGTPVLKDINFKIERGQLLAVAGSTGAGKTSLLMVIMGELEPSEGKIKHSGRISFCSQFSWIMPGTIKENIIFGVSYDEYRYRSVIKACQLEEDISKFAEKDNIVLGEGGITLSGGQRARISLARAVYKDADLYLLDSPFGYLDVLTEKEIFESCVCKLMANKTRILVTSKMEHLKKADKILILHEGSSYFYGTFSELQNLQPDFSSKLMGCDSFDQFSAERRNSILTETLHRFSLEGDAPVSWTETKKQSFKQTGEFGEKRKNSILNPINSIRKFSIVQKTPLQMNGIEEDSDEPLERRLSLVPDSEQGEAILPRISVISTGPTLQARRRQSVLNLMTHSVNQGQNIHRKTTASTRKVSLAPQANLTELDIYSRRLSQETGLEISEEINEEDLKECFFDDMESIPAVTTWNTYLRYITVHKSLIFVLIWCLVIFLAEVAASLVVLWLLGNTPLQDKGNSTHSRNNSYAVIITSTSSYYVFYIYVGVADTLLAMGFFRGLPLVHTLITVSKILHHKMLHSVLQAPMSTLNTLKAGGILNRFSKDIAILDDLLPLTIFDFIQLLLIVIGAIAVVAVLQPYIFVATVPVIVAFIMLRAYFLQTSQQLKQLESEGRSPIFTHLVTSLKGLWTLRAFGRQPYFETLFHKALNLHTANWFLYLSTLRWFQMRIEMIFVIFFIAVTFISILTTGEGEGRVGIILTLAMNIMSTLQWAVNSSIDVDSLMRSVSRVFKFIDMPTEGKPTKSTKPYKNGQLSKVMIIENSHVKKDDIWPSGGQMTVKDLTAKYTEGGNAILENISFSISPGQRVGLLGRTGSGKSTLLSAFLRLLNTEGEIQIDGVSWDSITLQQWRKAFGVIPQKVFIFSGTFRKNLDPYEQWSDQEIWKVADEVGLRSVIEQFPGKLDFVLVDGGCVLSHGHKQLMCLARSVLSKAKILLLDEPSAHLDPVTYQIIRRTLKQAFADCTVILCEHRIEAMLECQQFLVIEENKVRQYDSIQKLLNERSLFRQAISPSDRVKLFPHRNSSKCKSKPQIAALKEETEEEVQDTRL
Experimental: (A) The inhibition of mouse pendrin (mPDS)-mediated Cl^−/I^− exchange activity by F56 was measured in CHO-K1 cells (mean±S.E., n=5). The indicated concentration of F56 was pretreated for 10 minutes. (B) Summary of dose-response for inhibition of the human pendrin (hPDS)-mediated (closed circle, FIG. (a), C) and mPDS-mediated (open circle) Cl^−/I^− exchange activity. (C-F) Representative traces of intracellular pH in CHO-K1 cells expressing SLC26A3, SLC26A6, SLC26A7 and SLC26A9 were shown. The application of Cl^− free solution induced intracellular alkalization by Cl^−/HCO3^− exchange. The indicated concentration of F56 was pretreated for 10 minutes. (G) the effect of F56 (100 μM) on the CFTR chloride channel activity was measured in FRT cells expressing human CFTR. […] (H) The effect of F56 (100 μM) on the AN01 chloride channel activity was measured in FRT cells expressing human AN01. […] (I) The effect of F56 on the hERG (Kv11.1) potassium channel activity was measured in HEK293T cells expressing human Kv11.1 (mean±S.E., n=4). […] (J) The effect of F56 on the 5-HT2A channel activity was measured in FRT cells expressing human 5-HT2A (mean±S.E., n=4). […]
(A) The effect of F10 (30 μM) on the CFTR channel was measured in FRT cells expressing human CFTR and mutant YFP. […] (B) The effect of F10 (30 μM) on the AN01 channel activity was measured in FRT cells expressing human and mutant YFP. […]

[1] = biological target: T2, human wild-type (WT)-pendrin (Homo sapiens, UniProt O43511); assay: Pendrin-mediated Cl^−/SCN^− exchange activity in CHO-K1 cells; format: cell-based
T2 construct: expressed in transfected cells
T2 sequence (O43511 1-780): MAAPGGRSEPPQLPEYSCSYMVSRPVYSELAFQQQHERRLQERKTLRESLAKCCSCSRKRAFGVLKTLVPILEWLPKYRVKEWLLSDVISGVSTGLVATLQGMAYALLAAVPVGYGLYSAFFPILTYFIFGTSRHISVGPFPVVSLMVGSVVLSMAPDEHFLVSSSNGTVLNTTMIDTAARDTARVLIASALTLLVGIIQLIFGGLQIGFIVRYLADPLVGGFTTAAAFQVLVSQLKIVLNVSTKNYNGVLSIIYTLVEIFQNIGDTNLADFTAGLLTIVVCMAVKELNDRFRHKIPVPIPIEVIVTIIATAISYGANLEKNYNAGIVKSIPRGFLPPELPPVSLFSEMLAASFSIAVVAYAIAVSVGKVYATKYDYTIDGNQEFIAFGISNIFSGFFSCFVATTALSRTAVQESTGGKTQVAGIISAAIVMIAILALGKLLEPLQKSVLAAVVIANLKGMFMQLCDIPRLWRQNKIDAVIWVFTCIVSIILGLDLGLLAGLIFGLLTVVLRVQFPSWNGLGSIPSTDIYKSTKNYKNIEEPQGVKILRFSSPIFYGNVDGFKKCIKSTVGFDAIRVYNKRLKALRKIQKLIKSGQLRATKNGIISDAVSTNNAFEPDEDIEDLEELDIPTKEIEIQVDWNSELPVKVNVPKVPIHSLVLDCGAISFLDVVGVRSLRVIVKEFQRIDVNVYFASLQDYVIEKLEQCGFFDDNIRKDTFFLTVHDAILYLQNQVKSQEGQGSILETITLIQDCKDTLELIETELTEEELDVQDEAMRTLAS
Experimental: For measurement of Cl^−/SCN^− exchange activity, YFP fluorescence was measured in pendrin and halide sensor YFP expressing CHO-K1 cells. To measure the Cl^−/SCN^− exchange activity, HEPES buffer solution was changed to NaSCN-substituted HEPES buffer solution (140 mM NaSCN, 5 mM KCl, 1 mM MgCl2, 1 mM CaCl2, 10 mM glucose and 10 mM HEPES (pH 7.4)) for generation of an SCN^− gradient driving SCN^− inflow by pendrin. The YFP fluorescence change by SCN^− inflow was monitored using FLUOstar Omega microplate reader (BMG Labtech) and MARS data analysis software (BMG Labtech).

| SMILES | effect on CFTR activity (human CFTR; 100 μM, FRT cells, forskolin-activated) | inhibition of pendrin Cl^−/SCN^− exchange activity [1] | effect on CFTR channel activity (human CFTR; 30 μM, FRT cells with mutant YFP) |
| --- | --- | --- | --- |
| CC(C)(C)c1ccc(C2=NC(=Cc3cccs3)C(=O)O2)cc1 [F56, 2-(4-(tert-butyl)phenyl)-4-(thiophen-2-ylmethylene)oxazol-5(4H)-one] | not affected | strongly inhibited | – |
| CC(C)(C)c1ccc(C2=NC(=Cc3ccc[nH]3)C(=O)O2)cc1 [F10, 4-((1H-pyrrol-2-yl)methylene)-2-(4-(tert-butyl)phenyl)oxazol-5 (4H)-one] | – | strongly inhibit | did not show any effect |
